Results on four compounds are retold here after patent US7935335B2, “Strains belonging to the genus Paenibacillus and method of controlling plant disease by using these strains or culture thereof” (Kaken Pharmaceutical Co., Ltd., priority 2004, dated 2011).

The structures appear in SMILES notation. Where a SMILES comes first, the peptide text is derived from it. Bridges are numbered along the chain shown (N, C = ends). The star is where a group is joined. ξ: configuration not given here. Pentadecanoyl(3ξ-OH,15-Gua) = N=C(N)NCCCCCCCCCCCCC(O)CC(=O)*

Data set [1] concerns parsley cultured cells. As to the kind of experiment: Activity of inducing disease resistance: elicitor responsiveness of parsley cultured cells, phytoalexin detection by fluorescence. Type of data set: cell-based. The conditions noted are these: Evaluation Example 1; tested as 3:2 mixture.
Data set [2] concerns parsley cultured cells. The data set is described as above. It is filed as cell-based. The note with it: for Elicitor responsiveness of parsley cultured cells (in words): each compound alone; for Relative fluorescence: 0.5 μM. As to the method:
The activity of inducing disease resistance in plant of compound 1 and compound 2 according to the present invention was also evaluated according to the method of Siegrist, J. et al. The results are shown in Table 9.
The activity of inducing disease resistance in plant of each of compound 1 and compound 2 was evaluated in the same manner as in Evaluation Example 1 by adopting the method practiced in Evaluation Example 1, i.e., the method in which the elicitor responsiveness of parsley cultured cells was measured by the detection of phytoalexin using fluorescence.
The activity of inducing resistance to plant diseases of each of compound 3 and compound 4 was evaluated in the same manner as in Evaluation Example 1 by adopting the method practiced in Evaluation Example 1, i.e., the method in which the elicitor responsiveness of parsley cultured cells was measured by the detection of phytoalexin using fluorescence.

Data set [3] concerns cucumber bacterial blight bacterium (Pseudomonas syringae pv. lachrymans). As to the kind of experiment: Evaluation Example 2: paper disc test for direct antimicrobial activity against cucumber bacterial blight bacterium. The conditions noted are these: tested as 3:2 mixture, 60 + 40 ppm. Type of data set: cell-based. As for the experimental part:
That is, cucumber bacterial blight bacterium was mixed with a potato semisynthetic medium (a decoction consisting of 300 g of potato and 1 L of distilled water, calcium nitrate tetrahydrate 0.5 g, disodium hydrogenphosphate dodecahydrate 2 g, peptone 5 g, sucrose 20 g, powdered agar 15 g) maintained at 45° C., in a proportion of 1×10^8 CFU/mL, and the resulting mixture was dispensed in 20 mL aliquots into sterilized Petri dishes. After the solidification of the medium, 50 μL of a solution obtained by dissolving a 3:2 mixture of compounds 1 and 2 in dimethyl sulfoxide to a concentration of 100 μg/mL was infiltrated into a paper disc with a diameter of 8 mm, and then the paper disc was allowed to stand on the medium. After 48 hours of cultivation at 25° C. in the dark, the activity was evaluated on the basis of the presence of an inhibition zone around the periphery

Another data set concerns Gram-negative bacteria. The conditions noted are these: patent document 3, non-patent documents 4 and 5; cited from earlier work.
The nature of a further data set: Solubility in solvents. Type of data set: physicochemical.
The test system of data set [4] is Fusarium wilt of cucumber fungus. The note with it: patent document 3; cited from earlier work.
In data set [5] the test system is cucumber bacterial blight bacterium. The note with it: patent document 3; cited from earlier work.
Setting [6] is: Evaluation Example 6, elicitor treatment No.
Setting [7] is: Evaluation Example 6, elicitor treatment Yes.
Setting [8] is: Evaluation Example 7, elicitor No.
Where [9] appears, read: Evaluation Example 7, elicitor Yes.
The mark [10] stands for this setting: in ethyl acetate, chloroform and hexane.
Where [11] appears, read: in methanol, butanol, isopropyl alcohol and dimethyl sulfoxide.

For `CC1NC(=O)C(CCC(N)=O)NC(=O)C(C(C)O)NC(=O)C(C(C)C)NC(=O)C(C(C)C)NC(=O)C(NC(=O)CC(O)CCCCCCCCCCCCNC(=N)N)C(C)OC1=O` (stereo not drawn) [Compound 2, Fusaricidin B] ({Pentadecanoyl(3ξ-OH,15-Gua)}-TVVTQA; ester 1-C; configuration not given here), the “Elicitor responsiveness of parsley cultured cells (in words)” value (“Elicitor responsiveness” below) with parsley cultured cells [1] is “improve the elicitor responsiveness”; with parsley cultured cells [2] (Evaluation Example 6), “improves the elicitor responsiveness”. The values for the Relative fluorescence with parsley cultured cells [2] (setting [6]) and in the data set on parsley cultured cells [2] (setting [7]) were 100.7 and 1000, respectively. The “Direct antimicrobial activity against cucumber bacterial blight bacterium (in words)” value in data set [3] is listed as “do not exhibit direct antimicrobial activity”. In addition, the “Antimicrobial activity against Gram-negative bacteria” value in the data set on Gram-negative bacteria was “inactive”.
`CC(N)C(=O)OC(C)C1NC(=O)C(C(C)C)NC(=O)C(C(C)C)NC(=O)C(NC(=O)CC(O)CCCCCCCCCCCCNC(=N)N)C(C)OC(=O)C(C)NC(=O)C(CCC(N)=O)NC1=O` (stereo not drawn) [Compound 4] ({Pentadecanoyl(3ξ-OH,15-Gua)}-TVVT(Ala)QA; ester 1-C; configuration not given here): in the data set with parsley cultured cells [2] (Evaluation Example 7), the “Elicitor responsiveness” value was “improve the elicitor responsiveness”. In addition, the results for the Relative fluorescence in the data set on parsley cultured cells [2] (setting [8]) and in the data set on parsley cultured cells [2] (setting [9]) were 0.7 and 504.8, respectively. The results for the Solubility entry in “Solubility in solvents” (setting [10]) and in the data set “Solubility in solvents” (setting [11]) were “insoluble” and “readily soluble”, respectively.
As to `CC1NC(=O)C(CC(N)=O)NC(=O)C(C(C)O)NC(=O)C(C(C)C)NC(=O)C(C(C)C)NC(=O)C(NC(=O)CC(O)CCCCCCCCCCCCNC(=N)N)C(C)OC1=O` (stereo not drawn) [Compound 1, Fusaricidin A] ({Pentadecanoyl(3ξ-OH,15-Gua)}-TVVTNA; ester 1-C; configuration not given here), the figures for the “Elicitor responsiveness” value with parsley cultured cells [1] and with parsley cultured cells [2] (Evaluation Example 6) were “improve the elicitor responsiveness” and “improves the elicitor responsiveness”, respectively. Moreover, the figures for the Relative fluorescence with parsley cultured cells [2] (setting [6]) and in the data set with parsley cultured cells [2] (setting [7]) were 98.5 and 1000, respectively. In addition, the “Antimicrobial activity against Fusarium wilt of cucumber fungus” value in data set [4] is reported as “no antimicrobial activity”. Besides, in data set [3], the “Direct antimicrobial activity against cucumber bacterial blight bacterium (in words)” value was “do not exhibit direct antimicrobial activity”. In addition, the “Antimicrobial activity against Gram-negative bacteria” value in the data set on Gram-negative bacteria was “inactive”. Further, the “Antimicrobial activity against cucumber bacterial blight bacterium” value in data set [5] was “inactive”.
`CC(N)C(=O)OC(C)C1NC(=O)C(C(C)C)NC(=O)C(C(C)C)NC(=O)C(NC(=O)CC(O)CCCCCCCCCCCCNC(=N)N)C(C)OC(=O)C(C)NC(=O)C(CC(N)=O)NC1=O` (stereo not drawn) [Compound 3] ({Pentadecanoyl(3ξ-OH,15-Gua)}-TVVT(Ala)NA; ester 1-C; configuration not given here): the “Elicitor responsiveness” value with parsley cultured cells [2] (Evaluation Example 7) is “improve the elicitor responsiveness”. For the same compound, the Relative fluorescence is on record as 3.1 in the data set on parsley cultured cells [2] (setting [8]) and 222.7 with parsley cultured cells [2] (setting [9]). The Solubility entry is “insoluble” in the data set “Solubility in solvents” (setting [10]) and “readily soluble” in the data set “Solubility in solvents” (setting [11]).
